Measured values as given in patent US12458024B2, “Compound combination with superior herbicidal activity” (priority 2020, dated 2025).

Columns and labels:
Type in all cases: in vivo
Polygonum convolvulus = assay: Field trial herbicidal action, indaziflam + pelargonic acid, Polygonum convolvulus
Method: (§1) The following active compounds were tested: • Product PeAc contained 249.96 g a.i./L of pelargonic acid in an EC formulation • Product IAF contained 200 g a.i./L of indaziflam formulated as SC formulation • Product TBA contained 500 g a.i./L of terbutylazine formulated as SC formulation 2. Biological Trials Herbicidal Action (Field Trials)
(§2) The growth stages of the different weed or crop plant species are indicated according to the BBCH monograph “Growth stages of mono- and dicotyledonous plants”, 2nd edition, 2001, ed. Uwe Meier, Federal Biological Research Centre for Agriculture and Forestry (Biologische Bundesanstalt für Land und Forstwirtschaft). The respective BBCH stages are mentioned in brackets for the different weed or crop plant species and indicate the BBCH stage for the majority of the respective weed or crop plant species.
(§3) The dose rates of herbicidal ingredients used in each case are indicated for the respective active ingredient in brackets and refer to the amount of active ingredient per hectare (g a.i./ha).
(§4) • A is the efficacy in % when active compound A is applied at an application rate of a g a.i./ha, • B is the efficacy in % when active compound B is applied at an application rate of b g a.i./ha), • EC is the efficacy in % when the active compounds A and B are applied at application rates of a+b g a.i./ha), respectively, and Then EC=A+B−([…]/100)

Chenopodium album [1] = assay: Field trial herbicidal action, indaziflam + pelargonic acid, Chenopodium album
Method: as §1, §2, §3, §4

Abutilon theophrasti = assay: Field trial herbicidal action, indaziflam + pelargonic acid, Abutilon theophrasti
Method: as §1, §2, §3, §4

Setaria viridis = assay: Field trial herbicidal action, indaziflam + pelargonic acid, Setaria viridis
Method: as §1, §2, §3, §4

Echinocloa crus-galli [2] = assay: Field trial herbicidal action, indaziflam + pelargonic acid, Echinocloa crus-galli
Method: as §1, §2, §3, §4

Panicum maximum = assay: Field trial herbicidal action, indaziflam + pelargonic acid, Panicum maximum
Method: as §1, §2, §3, §4

Zea mays = assay: Field trial herbicidal action, indaziflam + pelargonic acid, Zea mays
Method: as §1, §2, §3, §4

Abuthilon theophrasti = assay: Field trial herbicidal action, terbuthylazine + pelargonic acid, Abuthilon theophrasti
Method: as §1, §2, §3, §4

Amaranthus retroflexus = assay: Field trial herbicidal action, terbuthylazine + pelargonic acid, Amaranthus retroflexus
Method: as §1, §2, §3, §4

Chenopodium album [3] = assay: Field trial herbicidal action, terbuthylazine + pelargonic acid, Chenopodium album
Method: as §1, §2, §3, §4

Echinocloa crus-galli [4] = assay: Field trial herbicidal action, terbuthylazine + pelargonic acid, Echinocloa crus-galli
Method: as §1, §2, §3, §4

Structure (SMILES): Cc1ccc2c(c1)C(Nc1nc(N)nc(C(C)F)n1)C(C)C2 (mixture of isomers) [Indaziflam, N2-[(1R,2S)-2,3-dihydro-2,6-dimethyl-1H-inden-1-yl]-6-[(1RS)-1-fluoroethyl]-1,3,5-triazine-2,4-diamine]
- Herbicidal Activity 13 DAT [%] (EA) (Polygonum convolvulus; 50 g a.i./ha): 55%
- Herbicidal Activity 13 DAT [%] (EA) (Chenopodium album [1]; 50 g a.i./ha): 20%
- Herbicidal Activity 13 DAT [%] (EA) (Abutilon theophrasti; 10 g a.i./ha): 60%
- Herbicidal Activity 13 DAT [%] (EA) (Abutilon theophrasti; 50 g a.i./ha): 92%
- Herbicidal Activity 13 DAT [%] (EA) (Setaria viridis; 50 g a.i./ha): 0%
- Herbicidal Activity 13 DAT [%] (EA) (Echinocloa crus-galli [2]; 50 g a.i./ha): 0%
- Herbicidal Activity 13 DAT [%] (EA) (Panicum maximum; 50 g a.i./ha): 5%
- Herbicidal Activity 13 DAT [%] (EA) (Zea mays; 50 g a.i./ha): 10%

Structure (SMILES): CCCCCCCCC(=O)O [Pelargonic acid, nonanoic acid]
- Herbicidal Activity 13 DAT [%] (EA) (Polygonum convolvulus; 6000 g a.i./ha): 40%
- Herbicidal Activity 13 DAT [%] (EA) (Chenopodium album [1]; 6000 g a.i./ha): 40%
- Herbicidal Activity 13 DAT [%] (EA) (Chenopodium album [1]; 16000 g a.i./ha): 80%
- Herbicidal Activity 13 DAT [%] (EA) (Abutilon theophrasti; 6000 g a.i./ha): 45%
- Herbicidal Activity 13 DAT [%] (EA) (Abutilon theophrasti; 16000 g a.i./ha): 88%
- Herbicidal Activity 13 DAT [%] (EA) (Setaria viridis; 6000 g a.i./ha): 10%
- Herbicidal Activity 13 DAT [%] (EA) (Setaria viridis; 16000 g a.i./ha): 45%
- Herbicidal Activity 13 DAT [%] (EA) (Echinocloa crus-galli [2]; 6000 g a.i./ha): 0%
- Herbicidal Activity 13 DAT [%] (EA) (Echinocloa crus-galli [2]; 16000 g a.i./ha): 25%
- Herbicidal Activity 13 DAT [%] (EA) (Panicum maximum; 6000 g a.i./ha): 20%
- Herbicidal Activity 13 DAT [%] (EA) (Panicum maximum; 16000 g a.i./ha): 50%
- Herbicidal Activity 13 DAT [%] (EA) (Zea mays; 6000 g a.i./ha): 38%
- Herbicidal Activity 13 DAT [%] (EA) (Zea mays; 16000 g a.i./ha): 65%
- Herbicidal Activity 14 DAT [%] (EA) (Abuthilon theophrasti; 6000 g a.i./ha): 30%
- Herbicidal Activity 14 DAT [%] (EA) (Abuthilon theophrasti; 12000 g a.i./ha): 57%
- Herbicidal Activity 14 DAT [%] (EA) (Abuthilon theophrasti; 16000 g a.i./ha): 57%
- Herbicidal Activity 14 DAT [%] (EA) (Amaranthus retroflexus; 6000 g a.i./ha): 13%
- Herbicidal Activity 14 DAT [%] (EA) (Amaranthus retroflexus; 12000 g a.i./ha): 90%
- Herbicidal Activity 14 DAT [%] (EA) (Amaranthus retroflexus; 16000 g a.i./ha): 93%
- Herbicidal Activity 14 DAT [%] (EA) (Chenopodium album [3]; 6000 g a.i./ha): 20%
- Herbicidal Activity 14 DAT [%] (EA) (Chenopodium album [3]; 12000 g a.i./ha): 88%
- Herbicidal Activity 14 DAT [%] (EA) (Chenopodium album [3]; 16000 g a.i./ha): 97%
- Herbicidal Activity 14 DAT [%] (EA) (Echinocloa crus-galli [4]; 6000 g a.i./ha): 13%
- Herbicidal Activity 14 DAT [%] (EA) (Echinocloa crus-galli [4]; 12000 g a.i./ha): 30%
- Herbicidal Activity 14 DAT [%] (EA) (Echinocloa crus-galli [4]; 16000 g a.i./ha): 33%

Structure (SMILES): CCNc1nc(Cl)nc(NC(C)(C)C)n1 [Terbuthylazin, terbuthylazine]
- Herbicidal Activity 14 DAT [%] (EA) (Abuthilon theophrasti; 125 g a.i./ha): 0%
- Herbicidal Activity 14 DAT [%] (EA) (Abuthilon theophrasti; 250 g a.i./ha): 7%
- Herbicidal Activity 14 DAT [%] (EA) (Abuthilon theophrasti; 500 g a.i./ha): 7%
- Herbicidal Activity 14 DAT [%] (EA) (Abuthilon theophrasti; 750 g a.i./ha): 20%
- Herbicidal Activity 14 DAT [%] (EA) (Amaranthus retroflexus; 125 g a.i./ha): 0%
- Herbicidal Activity 14 DAT [%] (EA) (Amaranthus retroflexus; 250 g a.i./ha): 7%
- Herbicidal Activity 14 DAT [%] (EA) (Amaranthus retroflexus; 500 g a.i./ha): 47%
- Herbicidal Activity 14 DAT [%] (EA) (Amaranthus retroflexus; 750 g a.i./ha): 63%
- Herbicidal Activity 14 DAT [%] (EA) (Chenopodium album [3]; 125 g a.i./ha): 0%
- Herbicidal Activity 14 DAT [%] (EA) (Chenopodium album [3]; 250 g a.i./ha): 13%
- Herbicidal Activity 14 DAT [%] (EA) (Chenopodium album [3]; 500 g a.i./ha): 67%
- Herbicidal Activity 14 DAT [%] (EA) (Chenopodium album [3]; 750 g a.i./ha): 78%
- Herbicidal Activity 14 DAT [%] (EA) (Echinocloa crus-galli [4]; 125 g a.i./ha): 0%
- Herbicidal Activity 14 DAT [%] (EA) (Echinocloa crus-galli [4]; 250 g a.i./ha): 0%
- Herbicidal Activity 14 DAT [%] (EA) (Echinocloa crus-galli [4]; 500 g a.i./ha): 0%
- Herbicidal Activity 14 DAT [%] (EA) (Echinocloa crus-galli [4]; 750 g a.i./ha): 0%
